PubChem BioAssay (NCI)
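How tested: cells in 96-well plates exposed to compound for 48 hours at five concentrations. At the GI50, growth is halved. The concentration for full growth arrest is given as TGI.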

Columns and labels:
Assay in all cases: NCI-60 cell line screen, 48 h
[1] = system: COLO 205 colon
[2] = system: LOX IMVI melanoma
[3] = system: SR leukemia
[4] = system: TK-10 renal
[5] = system: SK-MEL-2 melanoma
[6] = system: SF-268 CNS
[7] = system: IGROV1 ovarian
[8] = system: PC-3 prostate
[9] = system: UACC-62 melanoma
[10] = system: CAKI-1 renal
[11] = system: UACC-257 melanoma
[12] = system: NCI-H460 lung
[13] = system: A498 renal
[14] = system: HCC-2998 colon
[15] = system: 786-0 renal
[16] = system: HS 578T breast
[17] = system: MOLT-4 leukemia
[18] = system: T-47D breast
[19] = system: MDA-MB-435
[20] = system: EKVX NSCLC
[21] = system: OVCAR-4 ovarian
[22] = system: UO-31 renal
[23] = system: RXF 393 renal
[24] = system: OVCAR-8 ovarian
[25] = system: M14 melanoma
[26] = system: OVCAR-3 ovarian
[27] = system: NCI/ADR-RES ovarian
[28] = system: HT29 colon
[29] = system: NCI-H23 lung
[30] = system: MDA-MB-231 breast
[31] = system: SNB-19 CNS
[32] = system: OVCAR-5 ovarian
[33] = system: SK-OV-3 ovarian
[34] = system: HL-60(TB) leukemia
[35] = system: SK-MEL-5 melanoma
[36] = system: ACHN renal
[37] = system: NCI-H522 lung
[38] = system: SK-MEL-28 melanoma
[39] = system: K-562 leukemia
[40] = system: DU-145 prostate
[41] = system: KM12 colon
[42] = system: BT-549 breast
[43] = system: CCRF-CEM leukemia
[44] = system: HCT-116 colon
[45] = system: SF-295 CNS
[46] = system: HOP-92 NSCLC
[47] = system: HCT-15 colon
[48] = system: U251 CNS
[49] = system: HOP-62 NSCLC
[50] = system: SW-620 colon
[51] = system: MALME-3M melanoma
[52] = system: SNB-75 CNS
[53] = system: RPMI-8226 leukemia
[54] = system: NCI-H226 lung
[55] = system: A549 NSCLC
[56] = system: SN12C renal
[57] = system: SF-539 CNS

With `N#Cc1ccc(Oc2nc3ccccc3nc2C(=O)O)cc1` the TGI [1] was > 100000 nM, the TGI [2] was > 100000 nM and the TGI [3] was > 100000 nM. For the same molecule, the TGI [4] was > 100000 nM, the TGI [5] was > 100000 nM and the TGI [6] was > 100000 nM. The TGI [7] was > 100000 nM, the TGI [8] was > 100000 nM and the TGI [9] was > 100000 nM. The TGI [10] was > 100000 nM, the TGI [11] was > 100000 nM and the TGI [12] was > 100000 nM. For the same molecule, the TGI [13] was > 100000 nM, the TGI [14] was > 100000 nM and the TGI [15] was > 100000 nM. The TGI [16] was > 100000 nM, the TGI [17] was > 100000 nM and the TGI [18] was > 100000 nM. The TGI [19] was > 100000 nM, the TGI [20] was > 100000 nM and the TGI [21] was > 100000 nM. For the same molecule, the TGI [22] was > 100000 nM, the TGI [23] was > 100000 nM and the TGI [24] was > 100000 nM. For the same molecule, the TGI [25] was > 100000 nM, the TGI [26] was > 100000 nM and the TGI [27] was > 100000 nM. The TGI [28] was > 100000 nM, the TGI [29] was > 100000 nM and the TGI [30] was > 100000 nM. The TGI [31] was > 100000 nM, the TGI [32] was > 100000 nM and the TGI [33] was > 100000 nM. The TGI [34] was > 100000 nM, the TGI [35] was > 100000 nM and the TGI [36] was > 100000 nM. The TGI [37] was > 100000 nM, the TGI [38] was > 100000 nM and the TGI [39] was > 100000 nM. For the same molecule, the TGI [40] was > 100000 nM, the TGI [41] was > 100000 nM and the TGI [42] was > 100000 nM. For the same molecule, the TGI [43] was > 100000 nM, the TGI [44] was > 100000 nM and the TGI [45] was > 100000 nM. The TGI [46] was > 100000 nM, the TGI [47] was > 100000 nM and the TGI [48] was > 100000 nM. The TGI [49] was > 100000 nM, the TGI [50] was > 100000 nM and the TGI [51] was > 100000 nM. The TGI [52] was > 100000 nM, the TGI [53] was > 100000 nM and the TGI [54] was > 100000 nM. For the same molecule, the TGI [55] was > 100000 nM.

Molecule `O=C(Nc1ccc(Cl)cc1)Nc1ccc(Oc2nncc3ccccc23)cc1` has a GI50 [1] of 1180 nM, a TGI [1] of 2920 nM and a GI50 [2] of 166 nM. For the same molecule, the TGI [2] was 455 nM, the GI50 [3] was 401 nM and the TGI [3] was > 100000 nM. For the same molecule, the GI50 [4] was 2120 nM, the TGI [4] was 4280 nM and the GI50 [5] was 1570 nM. For the same molecule, the TGI [5] was 3650 nM, the GI50 [6] was 1350 nM and the TGI [6] was 7210 nM. It also gave a GI50 [7] of 1160 nM, a TGI [7] of 5000 nM and a GI50 [56] of 1030 nM. The TGI [56] was 3580 nM, the GI50 [8] was 1640 nM and the TGI [8] was 6080 nM. The GI50 [9] was 1080 nM, the TGI [9] was 3460 nM and the GI50 [10] was 2720 nM. It also gave a TGI [10] of 8700 nM, a GI50 [11] of 1500 nM and a TGI [11] of 4040 nM. It also gave a GI50 [57] of 280 nM, a TGI [57] of 1130 nM and a GI50 [12] of 2790 nM. It also gave a TGI [12] of 8320 nM, a GI50 [13] of 1500 nM and a TGI [13] of 3060 nM. The GI50 [14] was 1840 nM, the TGI [14] was 3480 nM and the GI50 [16] was 696 nM. The TGI [16] was 47000 nM, the GI50 [17] was 376 nM and the TGI [17] was > 100000 nM. The GI50 [18] was 245 nM, the TGI [18] was 768 nM and the GI50 [19] was 290 nM. It also gave a TGI [19] of 1070 nM, a GI50 [20] of 1610 nM and a TGI [20] of 4500 nM. For the same molecule, the GI50 [21] was 753 nM, the TGI [21] was 3490 nM and the GI50 [23] was 312 nM. The TGI [23] was 1050 nM, the GI50 [24] was 1100 nM and the TGI [24] was 13600 nM. It also gave a GI50 [25] of 1120 nM, a TGI [25] of 3160 nM and a GI50 [26] of 354 nM. The TGI [26] was 1150 nM, the GI50 [27] was 2630 nM and the TGI [27] was > 100000 nM. For the same molecule, the GI50 [28] was 465 nM, the TGI [28] was 2390 nM and the GI50 [29] was 751 nM. For the same molecule, the TGI [29] was 2870 nM, the GI50 [30] was 399 nM and the TGI [30] was 3680 nM. The GI50 [31] was 1740 nM, the TGI [31] was 4790 nM and the GI50 [32] was 1890 nM. It also gave a TGI [32] of 4470 nM, a GI50 [33] of 1740 nM and a TGI [33] of 5480 nM. For the same molecule, the GI50 [34] was 1080 nM, the TGI [34] was 13400 nM and the GI50 [35] was 1200 nM. For the same molecule, the TGI [35] was 2810 nM, the GI50 [36] was 1050 nM and the TGI [36] was 2330 nM. It also gave a GI50 [37] of 193 nM, a TGI [37] of 419 nM and a GI50 [38] of 422 nM. The TGI [38] was 1650 nM, the GI50 [39] was 376 nM and the TGI [39] was 10900 nM. For the same molecule, the GI50 [40] was 736 nM, the TGI [40] was 2080 nM and the GI50 [41] was 888 nM. For the same molecule, the TGI [41] was 2650 nM, the GI50 [42] was 2080 nM and the TGI [42] was 7430 nM. It also gave a GI50 [44] of 326 nM, a TGI [44] of 1200 nM and a GI50 [45] of 2540 nM. For the same molecule, the TGI [45] was 6270 nM, the GI50 [46] was 1640 nM and the TGI [46] was 4380 nM. It also gave a GI50 [47] of 961 nM, a TGI [47] of 3080 nM and a GI50 [48] of 1010 nM. The TGI [48] was 2380 nM, the GI50 [49] was 1090 nM and the TGI [49] was 4320 nM. For the same molecule, the GI50 [50] was 348 nM, the TGI [50] was 1600 nM and the GI50 [51] was 448 nM. The TGI [51] was 2310 nM, the GI50 [52] was 451 nM and the TGI [52] was 1950 nM. For the same molecule, the GI50 [53] was 488 nM, the TGI [53] was 4580 nM and the GI50 [54] was 623 nM. The TGI [54] was 5420 nM, the GI50 [55] was 2810 nM and the TGI [55] was 11500 nM.
